Some test systems named below: A549 NSCLC; HCT-116 colon; IGROV1 ovarian; MALME-3M melanoma; NCI-H460 lung; OVCAR-5 ovarian; RPMI-8226 leukemia; SK-MEL-5 melanoma; SNB-19 CNS; UACC-257 melanoma.
What all share (experiment): growth of human tumour cells (NCI), 48 h

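Method: 48-hour compound exposure of cells in 96-well plates, five concentrations, linear interpolation of endpoints. At the GI50, growth is halved. TGI: concentration producing complete growth inhibition.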

Results on four compounds are retold here after PubChem BioAssay (NCI).

In the case of `O=C(O)c1cc(-c2ccc3cc4c(cc3c2)OCO4)nc2ccccc12`, the TGI is above 100 µM in the test on A549 NSCLC; above 100 µM with HCT-116 colon; above 100 µM in the test on IGROV1 ovarian; above 100 µM in the test on MALME-3M melanoma; 42.7 µM in the test with NCI-H460 lung; above 100 µM with OVCAR-5 ovarian. In addition, the TGI in the test with RPMI-8226 leukemia is above 100 µM; in the test on SK-MEL-5 melanoma, above 100 µM; with SNB-19 CNS it was above 100 µM; with UACC-257 melanoma, 35.4 µM.
Take `Cc1nc([N+](=O)[O-])cn1-c1nc2ccccn2c1[N+](=O)[O-]`: the TGI with A549 NSCLC, in the test with HCT-116 colon, in the test on IGROV1 ovarian, with MALME-3M melanoma, in the test with NCI-H460 lung and in the test with OVCAR-5 ovarian was above 100 µM each time. The TGI with RPMI-8226 leukemia, in the test with SK-MEL-5 melanoma, in the test with SNB-19 CNS and in the test with UACC-257 melanoma was above 100 µM each time.
Take `NNC(=O)C(=O)N/N=C(\CCCC(=O)Nc1ccc(Cl)cc1)CC(=O)c1ccc(F)cc1`: the TGI in the test with A549 NSCLC, with HCT-116 colon, in the test on IGROV1 ovarian, in the test on MALME-3M melanoma, in the test with NCI-H460 lung and with OVCAR-5 ovarian was above 100 µM each time. The TGI with RPMI-8226 leukemia, with SK-MEL-5 melanoma, with SNB-19 CNS and with UACC-257 melanoma was above 100 µM throughout.
Take `COc1ccc(/C=C\c2cc(OC)c(OC)c(OC)c2)cc1OCC(=O)Nc1nc2ccc(F)cc2s1`: the GI50 is 5.99 µM with A549 NSCLC; 4.48 µM with HCT-116 colon; 4.17 µM in the test with IGROV1 ovarian; 5.22 µM in the test on MALME-3M melanoma; 4.31 µM with NCI-H460 lung; above 100 µM in the test on OVCAR-5 ovarian. For the same compound, the GI50 in the test on RPMI-8226 leukemia is 6.36 µM; in the test on SK-MEL-5 melanoma it was 1.76 µM; in the test with SNB-19 CNS it was above 100 µM; in the test with UACC-257 melanoma, 8.69 µM. The TGI in the test on A549 NSCLC, in the test with HCT-116 colon, with IGROV1 ovarian, in the test with MALME-3M melanoma, in the test on NCI-H460 lung and in the test with OVCAR-5 ovarian was above 100 µM throughout. Also, the TGI with RPMI-8226 leukemia was above 100 µM; in the test on SK-MEL-5 melanoma, 8.96 µM; in the test on SNB-19 CNS, above 100 µM; in the test on UACC-257 melanoma, above 100 µM.
